Experimental data from patent publication US10399940B2, “Substituted pyrrolidines and methods of use” (AbbVie S.à.r.l., priority 2016, dated 2019).
pEC50: −log10 of the molar value. Read-outs that look alike come from different tables or passages of the source.

Biological target: T1, F508delCFTR (Homo sapiens, UniProt P13569, DEL508-508)
T1 construct: expressed in transfected cells; host or cells: CFBE41o- (human lung derived epithelial cell line), doxycycline-inducible expression
Experiment: Cell Surface Expression-Horse Radish Peroxidase (CSE-HRP) assay
Assay type: cell-based
Settings: CFBE41o-F508delCFTR-HRP cells; for Maximum % activity (with co-corrector): with co-corrector (2 μM); for Maximum % activity (with co-corrector) / Maximum % activity (without co-corrector): normalized to on-plate positive control, highest concentration 20 μM
How it was run: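 Surface F508delCFTR-HRP was read by luminol luminescence after 18–24 h compound exposure at 33 °C, without or with 2 μM co-corrector. Doses were eight 3-fold steps from 20 μM, in doxycycline-induced (0.5 μg/mL, 72 h) CFBE41o- cells. % activity was scaled to the on-plate 2 μM positive control minus DMSO; EC50 came from a variable-slope sigmoid fit.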

[1] = test compound without co-corrector, 18-24 hours at 33° C., read-out: EC50 (without co-corrector)
[2] = with co-corrector (2 μM of 3-[(2R,4R)-4-({[1-(2,2-difluoro-1,3-benzodioxol-5-yl)cyclopropyl]carbonyl}amino)-7-methoxy-3,4-dihydro-2H-chromen-2-yl]benzoic acid), read-out: EC50 (with co-corrector)

T1 sequence (P13569 with tags, fused parts or gaps DEL508-508): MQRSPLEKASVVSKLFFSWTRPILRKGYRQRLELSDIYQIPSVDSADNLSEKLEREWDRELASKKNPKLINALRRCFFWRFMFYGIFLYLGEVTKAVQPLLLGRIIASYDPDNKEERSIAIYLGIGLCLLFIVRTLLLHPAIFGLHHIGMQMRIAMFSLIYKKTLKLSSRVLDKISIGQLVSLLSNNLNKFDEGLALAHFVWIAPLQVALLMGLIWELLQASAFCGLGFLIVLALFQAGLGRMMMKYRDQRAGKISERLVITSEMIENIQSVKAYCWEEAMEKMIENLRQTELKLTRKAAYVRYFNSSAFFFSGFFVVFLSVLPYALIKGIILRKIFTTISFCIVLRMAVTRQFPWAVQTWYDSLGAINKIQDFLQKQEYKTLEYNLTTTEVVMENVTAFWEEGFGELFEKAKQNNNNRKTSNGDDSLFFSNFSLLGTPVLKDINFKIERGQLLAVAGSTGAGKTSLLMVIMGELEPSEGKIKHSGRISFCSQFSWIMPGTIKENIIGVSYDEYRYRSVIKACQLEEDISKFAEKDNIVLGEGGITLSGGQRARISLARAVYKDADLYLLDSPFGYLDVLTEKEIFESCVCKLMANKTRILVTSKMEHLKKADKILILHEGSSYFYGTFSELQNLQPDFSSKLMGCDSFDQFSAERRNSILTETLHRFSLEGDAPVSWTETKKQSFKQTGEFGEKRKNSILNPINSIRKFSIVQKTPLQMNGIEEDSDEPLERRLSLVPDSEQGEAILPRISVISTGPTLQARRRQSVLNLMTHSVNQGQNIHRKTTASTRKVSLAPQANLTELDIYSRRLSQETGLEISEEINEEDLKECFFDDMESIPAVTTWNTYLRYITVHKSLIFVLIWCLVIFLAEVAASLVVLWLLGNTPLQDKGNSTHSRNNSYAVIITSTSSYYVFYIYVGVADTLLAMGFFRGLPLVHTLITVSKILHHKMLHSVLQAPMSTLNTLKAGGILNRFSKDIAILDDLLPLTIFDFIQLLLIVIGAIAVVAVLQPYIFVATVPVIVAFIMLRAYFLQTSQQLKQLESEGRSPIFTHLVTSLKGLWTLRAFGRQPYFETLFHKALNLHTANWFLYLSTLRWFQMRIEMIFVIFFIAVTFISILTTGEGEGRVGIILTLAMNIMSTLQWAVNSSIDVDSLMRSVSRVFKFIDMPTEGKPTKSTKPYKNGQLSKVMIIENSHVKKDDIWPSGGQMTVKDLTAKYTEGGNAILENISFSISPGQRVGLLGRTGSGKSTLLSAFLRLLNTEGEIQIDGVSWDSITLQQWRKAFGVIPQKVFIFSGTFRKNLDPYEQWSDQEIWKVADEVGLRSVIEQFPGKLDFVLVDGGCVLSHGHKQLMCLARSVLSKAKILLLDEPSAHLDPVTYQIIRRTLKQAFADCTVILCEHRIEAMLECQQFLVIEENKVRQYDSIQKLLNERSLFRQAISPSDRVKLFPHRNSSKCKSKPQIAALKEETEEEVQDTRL

| Structure (SMILES) | pEC50 [1] | pEC50 [2] | Maximum % activity (with co-corrector) | Maximum % activity (without co-corrector) |
| --- | --- | --- | --- | --- |
| COc1ncc(C2=CCOCC2)cc1CO[C@H]1[C@H](C(C)(C)C)[C@@H](C(=O)O)N(C(=O)OC(C)C)[C@H]1c1ccccc1 [Example 69, (2S,3R,4S,5S)-3-tert-butyl-4-{[5-(3,6-dihydro-2H-pyran-4-yl)-2-methoxypyridin-3-yl]methoxy}-5-phenyl-1-{[(propan-2-yl)oxy]carbonyl}pyrrolidine-2-carboxylic acid] | 5.00 to 6.00 | 5.00 to 6.00 | ++ (≥150 and <350) | + (<100) |
| COc1cccc(-c2cnc(OC)c(CO[C@H]3[C@H](C(C)(C)C)[C@@H](C(=O)O)N(C(=O)OC(C)C)[C@H]3c3ccccc3)c2)c1 [Example 70, (2S,3R,4S,5S)-3-tert-butyl-4-{[2-methoxy-5-(3-methoxyphenyl)pyridin-3-yl]methoxy}-5-phenyl-1-{[(propan-2-yl)oxy]carbonyl}pyrrolidine-2-carboxylic acid] | 5.00 to 6.00 | 5.00 to 6.00 | ++ (≥150 and <350) | + (<100) |
| COc1ncc(-c2ccc(C)cc2)cc1CO[C@H]1[C@H](C(C)(C)C)[C@@H](C(=O)O)N(C(=O)OC(C)C)[C@H]1c1ccccc1 [Example 71, (2S,3R,4S,5S)-3-tert-butyl-4-{[2-methoxy-5-(4-methylphenyl)pyridin-3-yl]methoxy}-5-phenyl-1-{[(propan-2-yl)oxy]carbonyl}pyrrolidine-2-carboxylic acid] | 5.00 to 6.00 | 5.00 to 6.00 | +++ (≥350) | + (<100) |
| COc1nc(C(C)(C)C)ccc1CO[C@H]1[C@H](C(C)(C)C)[C@@H](C(=O)O)N(C(=O)OC(C)C)[C@H]1c1ccccc1 [Example 72, (2S,3R,4S,5S)-3-tert-butyl-4-[(6-tert-butyl-2-methoxypyridin-3-yl)methoxy]-5-phenyl-1-{[(propan-2-yl)oxy]carbonyl}pyrrolidine-2-carboxylic acid] | 5.00 to 6.00 | 5.00 to 6.00 | +++ (≥350) | + (<100) |
| COc1ncc(C(F)(F)F)cc1CO[C@H]1[C@H](C(C)(C)C)[C@@H](C(=O)O)N(C(=O)OC(C)C)[C@H]1c1ccccc1F [Example 73, (2S,3R,4S,5S)-3-tert-butyl-5-(2-fluorophenyl)-4-{[2-methoxy-5-(trifluoromethyl)pyridin-3-yl]methoxy}-1-{[(propan-2-yl)oxy]carbonyl}pyrrolidine-2-carboxylic acid] | 5.00 to 6.00 | > 6.00 | +++ (≥350) | ++ (≥100 and <200) |
| COc1ncc(C(C)(C)C)cc1CO[C@H]1[C@H](C(C)(C)C)[C@@H](C(=O)O)N(C(=O)OC(C)C)[C@H]1c1ccccc1F [Example 74, (2S,3R,4S,5S)-3-tert-butyl-4-[(5-tert-butyl-2-methoxypyridin-3-yl)methoxy]-5-(2-fluorophenyl)-1-{[(propan-2-yl)oxy]carbonyl}pyrrolidine-2-carboxylic acid] | 5.00 to 6.00 | 5.00 to 6.00 | +++ (≥350) | ++ (≥100 and <200) |
| COc1ncc(C(C)(C)C)cc1CO[C@@H]1[C@H](C(C)(C)C)[C@@H](C(=O)O)N(C(=O)OC(C)C)[C@H]1c1ccccc1F [Example 75, (2S,3R,4R,5S)-3-tert-butyl-4-[(5-tert-butyl-2-methoxypyridin-3-yl)methoxy]-5-(2-fluorophenyl)-1-{[(propan-2-yl)oxy]carbonyl}pyrrolidine-2-carboxylic acid] | < 5.00 | < 5.00 | + (<150) | + (<100) |
| COc1ncc(Br)cc1CO[C@H]1[C@H](C(C)(C)C)[C@@H](C(=O)O)N(C(=O)OC(C)C)[C@H]1c1ccccc1F [Example 76, (2S,3R,4S,5S)-4-[(5-bromo-2-methoxypyridin-3-yl)methoxy]-3-tert-butyl-5-(2-fluorophenyl)-1-{[(propan-2-yl)oxy]carbonyl}pyrrolidine-2-carboxylic acid] | 5.00 to 6.00 | 5.00 to 6.00 | +++ (≥350) | ++ (≥100 and <200) |
| COc1ncc(C2CCC2)cc1CO[C@H]1[C@H](C(C)(C)C)[C@@H](C(=O)O)N(C(=O)OC(C)C)[C@H]1c1ccccc1F [Example 77, (2S,3R,4S,5S)-3-tert-butyl-4-[(5-cyclobutyl-2-methoxypyridin-3-yl)methoxy]-5-(2-fluorophenyl)-1-{[(propan-2-yl)oxy]carbonyl}pyrrolidine-2-carboxylic acid] | 5.00 to 6.00 | 5.00 to 6.00 | +++ (≥350) | ++ (≥100 and <200) |
| COc1ccc(C(F)(F)F)cc1CO[C@H]1[C@H](C(C)(C)C)[C@@H](C(=O)O)N(C(=O)OC(C)C)[C@H]1c1cccnc1OC(C)C [Example 78, (2S,3R,4S,5S)-3-tert-butyl-4-{[2-methoxy-5-(trifluoromethyl)phenyl]methoxy}-1-{[(propan-2-yl)oxy]carbonyl}-5-{2-[(propan-2-yl)oxy]pyridin-3-yl}pyrrolidine-2-carboxylic acid] | 5.00 to 6.00 | 5.00 to 6.00 | +++ (≥350) | ++ (≥100 and <200) |
| COc1ncc(C(F)(F)F)cc1CO[C@H]1[C@H](C(C)(C)C)[C@@H](C(=O)O)N(C(=O)OC(C)C)[C@H]1c1cccc(Cl)c1 [Example 79, (2S,3R,4S,5S)-3-tert-butyl-5-(3-chlorophenyl)-4-{[2-methoxy-5-(trifluoromethyl)pyridin-3-yl]methoxy}-1-{[(propan-2-yl)oxy]carbonyl}pyrrolidine-2-carboxylic acid] | 5.00 to 6.00 | 5.00 to 6.00 | ++ (≥150 and <350) | + (<100) |
| COc1ncc(C(C)(C)C)cc1CO[C@H]1[C@H](C(C)(C)C)[C@@H](C(=O)O)N(C(=O)OC(C)C)[C@H]1c1cccc(Cl)c1 [Example 80, (2S,3R,4S,5S)-3-tert-butyl-4-[(5-tert-butyl-2-methoxypyridin-3-yl)methoxy]-5-(3-chlorophenyl)-1-{[(propan-2-yl)oxy]carbonyl}pyrrolidine-2-carboxylic acid] | 5.00 to 6.00 | 5.00 to 6.00 | ++ (≥150 and <350) | + (<100) |
| COc1ncc(N2CCCCC2)cc1CO[C@H]1[C@H](C(C)(C)C)[C@@H](C(=O)O)N(C(=O)OC(C)C)[C@H]1c1ccccc1 [Example 81, (2S,3R,4S,5S)-3-tert-butyl-4-{[2-methoxy-5-(piperidin-1-yl)pyridin-3-yl]methoxy}-5-phenyl-1-{[(propan-2-yl)oxy]carbonyl}pyrrolidine-2-carboxylic acid] | 5.00 to 6.00 | 5.00 to 6.00 | ++ (≥150 and <350) | + (<100) |
| COc1ncc(N2CCCC2)cc1CO[C@H]1[C@H](C(C)(C)C)[C@@H](C(=O)O)N(C(=O)OC(C)C)[C@H]1c1ccccc1 [Example 82, (2S,3R,4S,5S)-3-tert-butyl-4-{[2-methoxy-5-(pyrrolidin-1-yl)pyridin-3-yl]methoxy}-5-phenyl-1-{[(propan-2-yl)oxy]carbonyl}pyrrolidine-2-carboxylic acid] | 5.00 to 6.00 | 5.00 to 6.00 | ++ (≥150 and <350) | + (<100) |
| COc1ncc(C(F)(F)F)cc1CO[C@H]1[C@H](C(C)(C)C)[C@@H](C(=O)O)N(C(=O)OC(C)C)[C@H]1c1ccccc1C [Example 83, (2S,3R,4S,5S)-3-tert-butyl-4-{[2-methoxy-5-(trifluoromethyl)pyridin-3-yl]methoxy}-5-(2-methylphenyl)-1-{[(propan-2-yl)oxy]carbonyl}pyrrolidine-2-carboxylic acid] | 5.00 to 6.00 | > 6.00 | +++ (≥350) | ++ (≥100 and <200) |
| COc1ncc(N2CC(F)(F)C2)cc1CO[C@H]1[C@H](C(C)(C)C)[C@@H](C(=O)O)N(C(=O)OC(C)C)[C@H]1c1ccccc1 [Example 84, (2S,3R,4S,5S)-3-tert-butyl-4-{[5-(3,3-difluoroazetidin-1-yl)-2-methoxypyridin-3-yl]methoxy}-5-phenyl-1-{[(propan-2-yl)oxy]carbonyl}pyrrolidine-2-carboxylic acid] | 5.00 to 6.00 | 5.00 to 6.00 | ++ (≥150 and <350) | + (<100) |
| COc1ncc(N2CCC(F)(F)C2)cc1CO[C@H]1[C@H](C(C)(C)C)[C@@H](C(=O)O)N(C(=O)OC(C)C)[C@H]1c1ccccc1 [Example 85, (2S,3R,4S,5S)-3-tert-butyl-4-{[5-(3,3-difluoropyrrolidin-1-yl)-2-methoxypyridin-3-yl]methoxy}-5-phenyl-1-{[(propan-2-yl)oxy]carbonyl}pyrrolidine-2-carboxylic acid] | 5.00 to 6.00 | 5.00 to 6.00 | ++ (≥150 and <350) | + (<100) |
